# Experimental data from EP4667458A1 (Kanaph Therapeutics Inc., priority 2023, dated 2024).
# pIC50: −log10 of the molar value.
# Target: T1, SOS1 (Homo sapiens, UniProt Q07889)
# T1 construct: adding equal amounts of HIS-SOS1cat (160 nM; Cytoskeleton, US); His; purchased Cytoskeleton, US
# T1 sequence (Q07889 564-1049 limits assumed): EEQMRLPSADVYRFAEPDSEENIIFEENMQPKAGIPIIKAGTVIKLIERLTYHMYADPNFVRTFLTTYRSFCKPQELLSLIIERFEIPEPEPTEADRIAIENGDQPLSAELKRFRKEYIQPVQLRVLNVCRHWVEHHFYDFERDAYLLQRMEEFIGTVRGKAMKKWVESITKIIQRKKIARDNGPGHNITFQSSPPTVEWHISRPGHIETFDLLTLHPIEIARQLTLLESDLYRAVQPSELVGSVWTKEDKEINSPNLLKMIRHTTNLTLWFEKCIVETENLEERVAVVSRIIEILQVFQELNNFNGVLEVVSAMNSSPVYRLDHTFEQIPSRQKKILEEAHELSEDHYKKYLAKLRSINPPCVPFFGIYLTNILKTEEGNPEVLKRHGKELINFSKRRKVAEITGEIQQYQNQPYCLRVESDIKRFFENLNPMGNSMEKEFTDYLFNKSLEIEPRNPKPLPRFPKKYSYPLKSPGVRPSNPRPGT
# Assay: SOS-catalyzed nucleotide exchange assay (HTRF, SOS1-mediated GTP loading of KRAS G12D)
# Assay type: biochemical
# Details: GST-KRAS G12D, HIS-SOS1cat, EDA-GTP-DY-647P1; compound 128 pM to 10 µM; read-out: SOS-catalyzed nucleotide exchange assay (IC50 range, Grade)
# Summary of the method: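 SOS1cat (HIS-tagged) preincubated 10 min at room temperature with compound (128 pM-10 µM), then GST-KRAS G12D with anti-GST terbium added; GTP loading tracked as HTRF with a DY-647P1 GTP analogue after 30 min, buffer HEPES pH 7.4. GEF-free wells for normalization; IC50 derived.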
row,SMILES,pIC50
1,"C[C@@H](NC(=O)c1ccc(=O)n(C23CC(C2)C3)n1)c1cc(N)cc(C(F)(F)F)c1 [Example 70, N-[(1R)-1-[3-amino-5-(trifluoromethyl)phenyl]ethyl]-1-{bicyclo[1.1.1]pentan-1-yl}-6-oxo-1,6-dihydropyridazine-3-carboxamide]",5.00 to 6.00
2,"C[C@@H](NC(=O)c1ccc(=O)n(C2=CCN(S(C)(=O)=O)CC2)c1)c1cc(N)cc(C(F)(F)F)c1 [Example 74, N-[(1R)-1-[3-amino-5-(trifluoromethyl)phenyl]ethyl]-1'-methanesulfonyl-6-oxo-2',3'-dihydro-1'H,6H,6'H-[1,4'-bipyridine]-3-carboxamide]",> 6.00
3,"C[C@@H](NC(=O)c1ccc(=O)n(C2CCCC2)n1)c1cc(N)cc(C(F)(F)F)c1 [Example 115, N-[(1R)-1-[3-amino-5-(trifluoromethyl)phenyl]ethyl]-1-cyclopentyl-6-oxo-1,6-dihydropyridazine-3-carboxamide]",5.00 to 6.00
4,"C[C@@H](NC(=O)c1ccc(=O)n(C2CCCCC2)n1)c1cc(N)cc(C(F)(F)F)c1 [Example 116, N-[(1R)-1-[3-amino-5-(trifluoromethyl)phenyl]ethyl]-1-cyclohexyl-6-oxo-1,6-dihydropyridazine-3-carboxamide]",5.00 to 6.00
5,"C[C@@H](NC(=O)c1ccc(=O)n(C2CCS(=O)(=O)CC2)n1)c1cc(N)cc(C(F)(F)F)c1 [Example 117, N-[(1R)-1-[3-amino-5-(trifluoromethyl)phenyl]ethyl]-1-(1,1-dioxo-1λ^6-thian-4-yl)-6-oxo-1,6-dihydropyridazine-3-carboxamide]",5.00 to 6.00
6,"C[C@@H](NC(=O)c1ccc(=O)n(C2C[C@@H]3CC[C@H]2C3)n1)c1cc(N)cc(C(F)(F)F)c1 (stereo partly drawn) [Example 119, N-[(1R)-1-[3-amino-5-(trifluoromethyl)phenyl]ethyl]-1-[(1S,4R)-bicyclo[2.2.1]heptan-2-yl]-6-oxo-1,6-dihydropyridazine-3-carboxamide]",< 5.00
7,"C[C@@H](NC(=O)c1ccc(=O)n(C2CCN(S(C)(=O)=O)CC2)n1)c1cc(N)cc(C(F)(F)F)c1 [Example 120, N-[(1R)-1-[3-amino-5-(trifluoromethyl)phenyl]ethyl]-1-(1-methanesulfonylpiperidin-4-yl)-6-oxo-1,6-dihydropyridazine-3-carboxamide]",5.00 to 6.00
8,"C[C@@H](NC(=O)c1ccc(=O)n([C@@H]2CCCC[C@H]2O)n1)c1cc(N)cc(C(F)(F)F)c1 [Example 124, N-((R)-1-(3-amino-5-(trifluoromethyl)phenyl)ethyl)-1-((1R,2R)-2-hydroxycyclohexyl)-6-oxo-1,6-dihydropyridazine-3-carboxamide]",5.00 to 6.00
9,"C[C@@H](NC(=O)c1ccc(=O)n([C@H]2CCCC[C@@H]2O)n1)c1cc(N)cc(C(F)(F)F)c1 [Example 125, N-((R)-1-(3-amino-5-(trifluoromethyl)phenyl)ethyl)-1-((1S,2S)-2-hydroxycyclohexyl)-6-oxo-1,6-dihydropyridazine-3-carboxamide]",5.00 to 6.00
10,"C[C@@H](NC(=O)c1ccc(=O)n(C2=CCN(C)CC2)n1)c1cc(N)cc(C(F)(F)F)c1 [Example 126, N-[(1R)-1-[3-amino-5-(trifluoromethyl)phenyl]ethyl]-1-(1-methyl-1,2,3,6-tetrahydropyridin-4-yl)-6-oxo-1,6-dihydropyridazine-3-carboxamide]",> 6.00
11,"COC1CC=C(n2nc(C(=O)N[C@H](C)c3cc(N)cc(C(F)(F)F)c3)ccc2=O)CC1 (stereo partly drawn) [Example 127, N-[(1R)-1-[3-amino-5-(trifluoromethyl)phenyl]ethyl]-1-(4-methoxycyclohex-1-en-1-yl)-6-oxo-1,6-dihydropyridazine-3-carboxamide]",5.00 to 6.00

# Results, then the compound that gave them:
row,pIC50,SMILES
1,> 6.00,"C[C@@H](NC(=O)c1ccc(=O)n(-c2cccc(CO)c2)c1)c1cc(N)cc(C(F)(F)F)c1 [Example 71, N-[(1R)-1-[3-amino-5-(trifluoromethyl)phenyl]ethyl]-1-[3-(hydroxymethyl)phenyl]-6-oxo-1,6-dihydropyridine-3-carboxamide]"
2,> 6.00,"C[C@@H](NC(=O)c1ccc(=O)n(-c2cccc(C(=O)OC(C)(C)C)c2)c1)c1cc(N)cc(C(F)(F)F)c1 [Example 72, Tert-butyl 3-(5-{[(1R)-1-[3-amino-5-(trifluoromethyl)phenyl]ethyl]carbamoyl}-2-oxo-1,2-dihydropyridin-1-yl)benzoate]"
3,> 6.00,"C[C@@H](NC(=O)c1ccc(=O)n(-c2ccncc2)c1)c1cc(N)cc(C(F)(F)F)c1 [Example 73, N-[(1R)-1-[3-amino-5-(trifluoromethyl)phenyl]ethyl]-2-oxo-2H-[1,4'-bipyridine]-5-carboxamide]"
4,> 6.00,"C[C@@H](NC(=O)c1ccc(=O)n(-c2cccc(C(=O)N3CCOCC3)c2)c1)c1cc(N)cc(C(F)(F)F)c1 [Example 75, N-[(1R)-1-[3-amino-5-(trifluoromethyl)phenyl]ethyl]-1-[3-(morpholine-4-carbonyl)phenyl]-6-oxo-1,6-dihydropyridine-3-carboxamide]"
5,> 6.00,"C[C@@H](NC(=O)c1ccc(=O)n(-c2cccc(N3CCNC3=O)c2)c1)c1cc(N)cc(C(F)(F)F)c1 [Example 85, N-[(1R)-1-[3-amino-5-(trifluoromethyl)phenyl]ethyl]-6-oxo-1-[3-(2-oxoimidazolidin-1-yl)phenyl]-1,6-dihydropyridine-3-carboxamide]"
6,> 6.00,"C[C@@H](NC(=O)c1ccc(=O)n(-c2cccc(N3CCN(C)C3=O)c2)c1)c1cc(N)cc(C(F)(F)F)c1 [Example 89, N-[(1R)-1-[3-amino-5-(trifluoromethyl)phenyl]ethyl]-1-[3-(3-methyl-2-oxo-imidazolidin-1-yl)phenyl]-6-oxo-pyridine-3-carboxamide]"
7,> 6.00,"C[C@@H](NC(=O)c1ccc(=O)n(-c2cccc(F)c2F)c1)c1cc(N)cc(C(F)(F)F)c1 [Example 94, N-[(1R)-1-[3-amino-5-(trifluoromethyl)phenyl]ethyl]-1-(2,3-difluorophenyl)-6-oxo-1,6-dihydropyridine-3-carboxamide]"
8,> 6.00,"C[C@@H](NC(=O)c1ccc(=O)n(-c2ccc(F)cc2F)c1)c1cc(N)cc(C(F)(F)F)c1 [Example 95, N-[(1R)-1-[3-amino-5-(trifluoromethyl)phenyl]ethyl]-1-(2,4-difluorophenyl)-6-oxo-1,6-dihydropyridine-3-carboxamide]"
9,> 6.00,"C[C@@H](NC(=O)c1ccc(=O)n(-c2cc(F)ccc2F)c1)c1cc(N)cc(C(F)(F)F)c1 [Example 96, N-[(1R)-1-[3-amino-5-(trifluoromethyl)phenyl]ethyl]-1-(2,5-difluorophenyl)-6-oxo-1,6-dihydropyridine-3-carboxamide]"
10,5.00 to 6.00,"C[C@@H](NC(=O)c1ccc(=O)n(-c2c(F)cccc2F)c1)c1cc(N)cc(C(F)(F)F)c1 [Example 97, N-[(1R)-1-[3-amino-5-(trifluoromethyl)phenyl]ethyl]-1-(2,6-difluorophenyl)-6-oxo-1,6-dihydropyridine-3-carboxamide]"
11,> 6.00,"CC(=O)Nc1cc(-n2cc(C(=O)N[C@H](C)c3cc(N)cc(C(F)(F)F)c3)ccc2=O)ccc1F [Example 113, 1-(3-acetamido-4-fluoro-phenyl)-N-[(1R)-1-[3-amino-5-(trifluoromethyl)phenyl]ethyl]-6-oxo-pyridine-3-carboxamide]"
